Our source for the IC50 values is BindingDB's records for doi:10.7270/Q2SB4462 (Burnham Center For Chemical Genomics, 2011).

In the test the target is T1, Ubiquitin-conjugating enzyme E2 N (Homo sapiens, UniProt P61088).
T1 sequence (P61088 whole entry): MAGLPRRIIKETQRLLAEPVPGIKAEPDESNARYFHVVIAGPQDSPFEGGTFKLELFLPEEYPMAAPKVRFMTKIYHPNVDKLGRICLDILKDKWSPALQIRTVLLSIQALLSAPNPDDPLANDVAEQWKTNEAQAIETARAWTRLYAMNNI
Kind of test: UBC13 polyubiquitination inhibitor potency, dose response, biochemical, TR-FRET, reconfirmation (AID 493182). A general note: Time-resolved FRET reads energy transfer from a long-lived donor to a nearby acceptor.

On to `CCCCNC(=S)N/N=C1\C(=O)Nc2ccccc21` [1-butyl-3-[(2-oxidanylideneindol-3-yl)amino]thiourea], for which the IC50 (in general, the midpoint of a concentration-inhibition curve) was 5.96 µM.
In turn, `C#CCOCCOCCOCCNc1nc(N2CCN(C(=O)CCCCCCCCCCNC(=O)Cn3cc(C[C@@H](C)O)nn3)CC2)nc(N2CCN(C(=O)CCCCCCCCCCNC(=O)[C@H](CCCN=C(N)N)n3cc(C[C@@H](C)CC)nn3)CC2)n1` [MLS002153601] registered an IC50 of 4.86 µM.
With `NC(=S)NN=C1C(=O)N(CCCl)c2ccccc21` the figure was 10.8 µM; with `COc1ccc(CN=Nc2cc(C)nc3ccc(OC)cc23)c(OC)c1`, 6.39 µM; with `C#CCOCCOCCOCCNc1nc(N2CCN(C(=O)CCCCCCCCCCNC(=O)[C@H]([C@@H](C)CC)n3cc(CCCCCN)nn3)CC2)nc(N2CCN(C(=O)CCCCCCCCCCNC(=O)[C@H]([C@@H](C)CC)n3cc(CCCCN=C(N)N)nn3)CC2)n1` [MLS002153718], 2.19 µM.
`CC1CC(C)(C)N2C(=O)/C(=N\NC(N)=S)c3cccc1c32` (stereo not given) [SMR000414933] displayed an IC50 of 4.95 µM.
In the case of `C#CCOCCOCCOCCNc1nc(N2CCN(C(=O)CCCCCCCCCCNC(=O)[C@H](CCCCN)n3cc(CCO)nn3)CC2)nc(N2CCN(C(=O)CCCCCCCCCCNC(=O)[C@@H]([C@H](C)O)n3cc(C)nn3)CC2)n1` [MLS002153685] it was 7.24 µM; in that of `C#CCOCCOCCOCCNc1nc(N2CCN(C(=O)CCCCCCCCCCNC(=O)[C@H](CCCCN)n3cc(CCCC(=O)O)nn3)CC2)nc(N2CCN(C(=O)CCCCCCCCCCNC(=O)[C@H](CCCN=C(N)N)n3cc(C[C@@H](C)CC)nn3)CC2)n1` [EK-IR], 3.61 µM.
`CCOc1ccc(-c2csc(NC(=O)c3cccc(-n4c(O)ccc4O)c3)n2)cc1` [SMR000319795] yielded an IC50 above 20 µM.
In the case of `NC(=S)NN=C1C(=O)N(C2OC(=O)c3ccccc32)c2ccccc21` (stereo not given) [[(Z)-[2-oxo-1-(3-oxo-1H-isobenzofuran-1-yl)-3-indolylidene]amino]thiourea] it was 2.38 µM; in that of `C#CCOCCOCCOCCNc1nc(N2CCN(C(=O)CCCCCCCCCCNC(=O)Cn3cc(CCCCCN)nn3)CC2)nc(N2CCN(C(=O)CCCCCCCCCCNC(=O)Cn3cc(C[C@@H](C)O)nn3)CC2)n1` [KG-TG], 7.41 µM.
Take `COCCNC(=S)NNC1=c2cc(C)cc(C)c2=NC1=O` [MLS000774564]: the IC50 turned out to be 0.561 µM.
In the case of `CCN(CC)CCOC(=O)c1ccc(N=CC(C#N)c2nc(-c3ccc(OC)cc3)cs2)cc1` (stereo not given) [4-[[(Z)-2-cyano-2-[4-(4-methoxyphenyl)-2-thiazolyl]ethenyl]amino]benzoic acid 2-(diethylamino)ethyl ester] it was 4.3 µM; in that of `C#CCOCCOCCOCCNc1nc(N2CCN(C(=O)[C@H](CCCCN)n3cc([C@@H](N)C(C)CC)nn3)CC2)nc(N2CCN(C(=O)[C@H](Cc3cc4ccccc4[nH]3)n3cc([C@@H](N)C(C)CC)nn3)CC2)n1` (stereo not given in full) [MLS000562580], 2.68 µM; in that of `CCN(CC)CCOC(=O)c1ccc(N=CC(C#N)c2nc(-c3ccc(OC)c(OC)c3)cs2)cc1` (stereo not given) [SMR000434079], 3.02 µM.
`C#CCOCCOCCOCCNc1nc(N2CCN(C(=O)CCCCCCCCCCNC(=O)[C@H]([C@@H](C)CC)n3cc(CCCCN=C(N)N)nn3)CC2)nc(N2CCN(C(=O)CCCCCCCCCCNC(=O)[C@H](CCCCN)n3cc(C)nn3)CC2)n1` [RI-GK] yielded an IC50 of 1.68 µM.
Take `C#CCOCCOCCOCCNc1nc(N2CCN(C(=O)CCCCCCCCCCNC(=O)[C@H]([C@@H](C)CC)n3cc(CCCCCN)nn3)CC2)nc(N2CCN(C(=O)CCCCCCCCCCNC(=O)[C@H](CCCCN)n3cc(CCCC(=O)O)nn3)CC2)n1` [KI-EK]: 6.08 µM corresponded to half-maximal inhibition (IC50).
In the case of `CCNC(=S)NNC1=c2cc(C(C)C)ccc2=NC1=O` [1-ethyl-3-[(2-oxo-5-propan-2-yl-3-indolyl)amino]thiourea] it was 2.49 µM.
With `C#CCOCCOCCOCCNc1nc(N2CCN(C(=O)[C@H](Cc3cc4ccccc4[nH]3)n3cc([C@@H](N)C(C)CC)nn3)CC2)nc(N2CCN(C(=O)[C@H](Cc3cc4ccccc4[nH]3)n3cc([C@@H](N)Cc4ccc(O)cc4)nn3)CC2)n1` (stereo not given in full) [SMR000391146] the figure was 6.27 µM.
As for `C#CCOCCOCCOCCNc1nc(N2CCN(C(=O)[C@H](CCCCN)n3cc([C@@H](N)C(C)CC)nn3)CC2)nc(N2CCN(C(=O)[C@H](Cc3cc4ccccc4[nH]3)n3cc([C@@H](N)CC(C)C)nn3)CC2)n1` (stereo not given in full) [SMR000391070], it took 2.07 µM to reach half-maximal inhibition (IC50).
In the case of `C#CCOCCOCCOCCNc1nc(N2CCN(C(=O)[C@H](Cc3cc4ccccc4[nH]3)n3cc([C@@H](N)C(C)CC)nn3)CC2)nc(N2CCN(C(=O)[C@H](CCCCN)n3cc([C@@H](N)CC(C)C)nn3)CC2)n1` (stereo not given in full) [MLS000562581] it was 2.07 µM.
On to `C#CCOCCOCCOCCNc1nc(N2CCN(C(=O)CCCCCCCCCCNC(=O)[C@@H](CCSC)n3cc(CCO)nn3)CC2)nc(N2CCN(C(=O)CCCCCCCCCCNC(=O)[C@H](CO)n3cc(CCCCCN)nn3)CC2)n1` [MLS002153734], for which the IC50 was found to be 4.24 µM.
With `COc1cc(C2c3c(-c4cccs4)n[nH]c3OC(=N)C2C#N)cc(OC)c1O` (stereo not given) [SMR000275523] the figure was 1.47 µM; with `C#CCOCCOCCOCCNc1nc(N2CCN(C(=O)CCCCCCCCCCNC(=O)Cn3cc(CCCCCN)nn3)CC2)nc(N2CCN(C(=O)CCCCCCCCCCNC(=O)[C@H]([C@@H](C)CC)n3cc(CCCCCN)nn3)CC2)n1` [MLS002153714], 2.29 µM.
In the case of `Cc1cccc2c1C(=NNC(N)=S)C(=O)N2C1OC(CO)C(O)C(O)C1O` (stereo not given) [The compound has not trivial name.] it was 4.56 µM.
In turn, `C#CCOCCOCCOCCNc1nc(N2CCN(C(=O)C([C@@H](C)CC)n3cc(C(N)COC(=O)C(F)(F)F)nn3)CC2)nc(N2CCN(C(=O)[C@H](CCCCN)n3cc(C(N)CC(C)C)nn3)CC2)n1` (stereo not given in full) [SMR000453712] gave an IC50 of 15.3 µM.
In turn, `CC1=CC(C)(C)N2C(=O)/C(=N\NC(N)=S)c3cccc1c32` [SMR000218901] gave an IC50 of 4.79 µM.
In the case of `Oc1c(Cc2cnc[nH]2)[nH]c(=S)n1-c1ccccc1` [MLS001163810] it was 4 µM.
With `C#CCOCCOCCOCCNc1nc(N2CCN(C(=O)CCCCCCCCCCNC(=O)[C@H](CCCCN)n3cc(C)nn3)CC2)nc(N2CCN(C(=O)CCCCCCCCCCNC(=O)[C@@H]([C@H](C)CC)n3cc(CCCCCN)nn3)CC2)n1` [MLS002153655] the figure was 2.23 µM.
In the case of `COc1ccc2nc(C)cc(N=NCc3ccc(F)cc3)c2c1` [N-[(4-fluorophenyl)methylideneamino]-6-methoxy-2-methyl-4-quinolinamine] it was 10.1 µM.
For `N=C(N)C1=CC(=O)/C(=C/C=c2ccc(=C(N)N)cc2)C=C1` [(4E)-4-[2-[4-[bis(azanyl)methylidene]cyclohexa-2,5-dien-1-ylidene]ethylidene]-3-oxidanylidene-cyclohexa-1,5-diene-1-carboximidamide;2-oxidanylethanesulfonic acid], the IC50 came to 2.8 µM.
In the case of `O=C1Nc2ccccc2/C1=N/NC(=S)Nc1ccc(O)cc1` [1-(4-hydroxyphenyl)-3-[(2-oxidanylideneindol-3-yl)amino]thiourea] it was 0.763 µM; in that of `COC(=O)c1ccc(CN2C(=O)C(=NNC(N)=S)c3ccccc32)o1`, above 20 µM; in that of `C#CCOCCOCCOCCNc1nc(N2CCN(C(=O)[C@H](CCCCN)n3cc([C@@H](N)CC(C)C)nn3)CC2)nc(N2CCN(C(=O)[C@H](Cc3cc4ccccc4[nH]3)n3cc([C@@H](N)Cc4ccc(O)cc4)nn3)CC2)n1` [SMR000391143], 2.78 µM.
The compound `O=C1Nc2ccc([N+](=O)[O-])cc2C1=NNC(=S)NCC1CCCO1` (stereo not given) had an IC50 of 0.664 µM.
`C#CCOCCOCCOCCNc1nc(N2CCN(C(=O)CCCCCCCCCCNC(=O)Cn3cc(CCCCCN)nn3)CC2)nc(N2CCN(C(=O)CCCCCCCCCCNC(=O)[C@H]([C@@H](C)CC)n3cc(CCCCN=C(N)N)nn3)CC2)n1` [KG-RI] yielded an IC50 of 2.11 µM.
For `CCOC(=O)c1c(C)c2c(n1C)CCCC2N=O` (stereo not given) [MLS000026784], the IC50 is 8.75 µM.
Compound `C#CCOCCOCCOCCNc1nc(N2CCN(C(=O)CCCCCCCCCCNC(=O)[C@H](CCCCN)n3cc(C)nn3)CC2)nc(N2CCN(C(=O)CCCCCCCCCCNC(=O)[C@H](CCCN=C(N)N)n3cc(C[C@@H](C)CC)nn3)CC2)n1` [MLS002153614] had an IC50 of 2.18 µM.
With `CC(=O)N1N=C(C2C(=O)N(C)C(=O)N(C)C2=O)CC1c1ccccc1` (stereo not given) [5-(1-acetyl-5-phenylpyrazolidin-3-ylidene)-1,3-dimethyl-1,3-diazinane-2,4,6-trione] the figure was 19.5 µM.
With `O=C1N=c2ccccc2=C1NNC(=S)NCC1CCCO1` (stereo not given) the figure was 0.967 µM.
